# Test results from patent US20130252816A1, “HERBICIDAL COMPOSITION AND USE THEREOF” (Syngenta Crop Protection LLC, priority 2010, published 2013).
# Columns and labels:
# [1] = test system: Stellaria media; assay: Example 2: alcohol ethoxylate adjuvants without glyphosate, visual % damage, tracksprayer 300 l/ha; type: in vivo
# Text: (§1) The effect of different types of alcohol ethoxylate (branched—Genapol X-series, and unbranched—Genapol O-series, differing degrees of ethoxylation, see Table 3 below for more details), on unwanted vegetation (broadleaf weed and grass species), in the absence of glyphosate, was investigated and compared to untreated (water only) control weeds.
# (§2) Troughs (measuring 16 cm by 13 cm by 5 cm) were filled with local field soil. Seeds of Veronica persica, Stellaria media, Trifolium repens and Poa annua were sown 24 days before application of test samples. Plants were grown in the glasshouse at 18 to 20° C. and 60% relative humidity. Application of alcohol ethoxylate test samples was carried out using a tracksprayer, spraying at a rate of 300 l/ha. Plants were kept in glasshouse and visual assessment of the estimated percentage damage to the plant was carried out 1, 7, and 14 days from application.
# (§3) Damage was assessed as wilting, desiccation or any other kind of visual injury in comparison to the untreated control (water only).
# [2] = test system: Trifolium repens; assay: as above; type: in vivo
# Text: as §1, §2, §3
# [3] = test system: Veronica persica; assay: as above; type: in vivo
# Text: as §1, §2, §3
# [4] = test system: Poa annua; assay: as above; type: in vivo
# Text: as §1, §2, §3
# [5] = test system: broadleaf weed and grass species; assay: Example 2: overall statement on alcohol ethoxylates without glyphosate; type: in vivo; settings: absence of glyphosate
# Text: as §1, §2, §3
# [6] = test system: treated plants; settings: after treatment, glyphosate per se; cited from earlier work
compound,measurement,setting,value
Iso-tridecyl alcohol polyglycol ether with 8 moles of ethoxylation [GenapolX080],mean % damage 1 daa Stellaria media,[1]; adjuvant 1% w/v,10%
same,mean % damage 7 daa Stellaria media,[1]; adjuvant 1% w/v,10%
same,mean % damage 14 daa Stellaria media,[1]; adjuvant 1% w/v,5%
same,mean % damage 1 daa Stellaria media,[1]; adjuvant 1.5% w/v,10%
same,mean % damage 7 daa Stellaria media,[1]; adjuvant 1.5% w/v,10%
same,mean % damage 14 daa Stellaria media,[1]; adjuvant 1.5% w/v,0%
same,mean % damage 1 daa Stellaria media,[1]; adjuvant 2% w/v,20%
same,mean % damage 7 daa Stellaria media,[1]; adjuvant 2% w/v,20%
same,mean % damage 14 daa Stellaria media,[1]; adjuvant 2% w/v,10%
same,mean % damage 1 daa Stellaria media,[1]; adjuvant 2.5% w/v,30%
same,mean % damage 7 daa Stellaria media,[1]; adjuvant 2.5% w/v,30%
same,mean % damage 14 daa Stellaria media,[1]; adjuvant 2.5% w/v,10%
same,mean % damage 1 daa Trifolium repens,[2]; adjuvant 1% w/v,20%
same,mean % damage 7 daa Trifolium repens,[2]; adjuvant 1% w/v,20%
same,mean % damage 14 daa Trifolium repens,[2]; adjuvant 1% w/v,15%
same,mean % damage 1 daa Trifolium repens,[2]; adjuvant 1.5% w/v,50%
same,mean % damage 7 daa Trifolium repens,[2]; adjuvant 1.5% w/v,60%
same,mean % damage 14 daa Trifolium repens,[2]; adjuvant 1.5% w/v,10%
same,mean % damage 1 daa Trifolium repens,[2]; adjuvant 2% w/v,50%
same,mean % damage 7 daa Trifolium repens,[2]; adjuvant 2% w/v,60%
same,mean % damage 14 daa Trifolium repens,[2]; adjuvant 2% w/v,15%
same,mean % damage 1 daa Trifolium repens,[2]; adjuvant 2.5% w/v,50%
same,mean % damage 7 daa Trifolium repens,[2]; adjuvant 2.5% w/v,60%
same,mean % damage 14 daa Trifolium repens,[2]; adjuvant 2.5% w/v,10%
same,mean % damage 1 daa Veronica persica,[3]; adjuvant 1% w/v,5%
same,mean % damage 7 daa Veronica persica,[3]; adjuvant 1% w/v,5%
same,mean % damage 14 daa Veronica persica,[3]; adjuvant 1% w/v,5%
same,mean % damage 1 daa Veronica persica,[3]; adjuvant 1.5% w/v,10%
same,mean % damage 7 daa Veronica persica,[3]; adjuvant 1.5% w/v,20%
same,mean % damage 14 daa Veronica persica,[3]; adjuvant 1.5% w/v,20%
same,mean % damage 1 daa Veronica persica,[3]; adjuvant 2% w/v,20%
same,mean % damage 7 daa Veronica persica,[3]; adjuvant 2% w/v,10%
same,mean % damage 14 daa Veronica persica,[3]; adjuvant 2% w/v,20%
same,mean % damage 1 daa Veronica persica,[3]; adjuvant 2.5% w/v,30%
same,mean % damage 7 daa Veronica persica,[3]; adjuvant 2.5% w/v,40%
same,mean % damage 14 daa Veronica persica,[3]; adjuvant 2.5% w/v,40%
same,mean % damage 1 daa Poa annua,[4]; adjuvant 1% w/v,0%
same,mean % damage 7 daa Poa annua,[4]; adjuvant 1% w/v,10%
same,mean % damage 14 daa Poa annua,[4]; adjuvant 1% w/v,0%
same,mean % damage 1 daa Poa annua,[4]; adjuvant 1.5% w/v,10%
same,mean % damage 7 daa Poa annua,[4]; adjuvant 1.5% w/v,30%
same,mean % damage 14 daa Poa annua,[4]; adjuvant 1.5% w/v,5%
same,mean % damage 1 daa Poa annua,[4]; adjuvant 2% w/v,40%
same,mean % damage 7 daa Poa annua,[4]; adjuvant 2% w/v,50%
same,mean % damage 14 daa Poa annua,[4]; adjuvant 2% w/v,10%
same,mean % damage 1 daa Poa annua,[4]; adjuvant 2.5% w/v,40%
same,mean % damage 7 daa Poa annua,[4]; adjuvant 2.5% w/v,50%
same,mean % damage 14 daa Poa annua,[4]; adjuvant 2.5% w/v,20%
same,course of damage over time (recovery),[5],the level of damage decreases from day 14 onwards
"O=C(O)CNCP(=O)(O)O [glyphosate, N-(phosphonomethyl)glycine]",time until visual symptoms of phytotoxicity appear,[6],7 to 10 days
